Values after ≈ are worked out from the molar mass of the structure shown. Like-named read-outs stand apart in the source and are kept apart here.
Experiments:
[1] = test system: Schistosoma mansoni worms; design: method as in ref 1 (Santiago et al.); settings: after 144 h; target not determined; ref 1 (Santiago et al.); cited from earlier work
S. mansoni adult worms = test: In vitro antischistosomal assay on adult worms; assay type: cell-based, Schistosoma mansoni; settings: for EC50: Schistosoma mansoni, based on mortality, after 72 h, 95% confidence interval in square brackets
Procedure: The antischistosomal assay was performed according to the methodology previously described[16],[19],[20]. Briefly, […], were incubated in flat bottom 24-well plates (Corning, New York, NY, USA) in RPMI 1640 culture medium (Vitrocell, Campinas, SP, Brazil) supplemented with 5% inactivated fetal calf serum, antibiotics (100 U/mL penicillin and 100 μg/mL streptomycin), and buffered with HEPES 25 mM (Sigma-Aldrich, St. Louis, MO, USA). Compounds were dissolved in dimethyl sulfoxide (DMSO at a final concentration of 0.5% v/v) and tested at 50 μM using PZQ 2 μM and DMSO 0.5% as positive and negative controls, respectively. Parasites were kept for 72 h (37 °C, 5% CO2, Panasonic, Osaka, Japan) and their viability was assessed using a Motic AE2000 inverted microscope (Vancouver, Canada)[21]. Each experiment was performed in triplicate and repeated at least three times. The negative control (using the highest concentration of DMSO, i.e., 0.5) and positive control (praziquantel 2 µM) were included.
Each concentration was tested in five replicates, and experiments were repeated once.

[2] = In vitro cytotoxicity assay (MTT) on Vero cells; assay type: cell-based, African green monkey; settings: African green monkey, Vero cells (ATCC CCL-81); Vero cells; MTT assay; 72 h; read-out: Mammalian cells CC50
Procedure: (§1) The life cycle of S. mansoni (Belo Horizonte strain) is maintained through routine passage through Biomphalaria glabrata snails and Swiss mice at the Research Center on Neglected Diseases (Guarulhos University, SP, Brazil). Both rodents and snails were kept under environmentally controlled conditions (25 °C; humidity of 50%), with free access to food and water. Vero cells were obtained from the American Type Culture Collection (ATCC CCL-81; Manassas, VA, USA). Cells were routinely cultured in Dulbecco’s Modified Eagle Medium (DMEM) supplemented with 5% heat-inactivated fetal bovine serum and antibiotics (100 U/mL penicillin and 100 μg/mL streptomycin) at 37 °C in a humidified atmosphere containing 5% CO2 [17].
(§2) The cytotoxicity of the compounds on the Vero cells was determined by thiazolyl blue tetrazolium bromide (MTT) assay (Sigma-Aldrich) as previously described[21],[24]. […] After 72 h, MTT solution was added to each well and the absorbance at 595 nm was read on a spectrophotometer (Epoch, BioTek Instruments, Winooski, VT, USA).

Vero cells = test: In vitro cytotoxicity assay (MTT) on Vero cells; assay type: cell-based, African green monkey; settings: CC50 on Vero cells divided by EC50 on schistosomes (based on the highest concentration)
Procedure: as §1, §2

S. mansoni-infected mice = test: In vivo antiparasitic study in an animal model of schistosomiasis; settings: 400 mg/kg single oral dose, vs infected untreated control
Procedure: In vivo studies in S. mansoni-infected mice were performed according to standard protocols[20],[26]. Rodents (3 weeks old) were infected subcutaneously with 80 S. mansoni cercariae each and animals were randomly divided into experimental groups (five mice per group). Compounds were dissolved in 2% ethanol in water (v/v) and tested at a single oral dose (400 mg/kg) administered 42 days post-infection[27]. For comparison, praziquantel (400 mg/kg) and a corresponding amount of vehicle were administered to groups of five schistosomes-infected animals in the same period[28],[29]. […] The percentage of worm and egg reduction was calculated by means of the following equation: % reduction = [(value of untreated control group − value of treatment group)/value of untreated control group] × 100%[32]. The nonparametric Kruskal–Wallis test was used to compare the medians of the responses between the treatment and control groups using the GraphPad Prism software (version 8.0; CA, USA). Differences were considered statistically significant at P < 0.05[9].

Caenorhabditis elegans = assay type: in vivo; settings: L4 stage, 24 h
Procedure: Caenorhabditis elegans wild-type (N2 strain), kindly provided by Dr. Carlos E. Winter (University of São Paulo), was routinely cultured at 22 °C on nematode growth medium (NGM) plates seeded with Escherichia coli (strain OP50) as a food source according to standard protocols.
For the drug assessment, the age-synchronized L1 stage was cultivated on standard NGM plates. When at the L4 stage, approximately 25 nematodes were transferred to each well of a 96-wells NGM plates containing the drug of interest at the desired concentration (10, 25, 50, 100, and 200 μM) along with a positive control (levamisole 10 μM) and a negative control (DMSO 0.5%). Nematodes were kept at 22 °C for 24 h, and their viability was verified microscopically using a Motic AE2000 inverted microscope (Vancouver, Canada) equipped with an ultra-high definition (UHD) camera and with a 48-inch 4K-UHD monitor system (LG Electronics, São Paulo, Brazil)[33].

In the case of COc1ccc(-c2cnc(N/N=C/N3C(=O)c4ccccc4C3=O)s2)cc1 [LpQM-45], the “IC50 (worm motility, pairing, oviposition study)” value [1] is given as 32.09 µg/mL (≈ 84.8 µM).
For Clc1ccc2c(N/N=C/c3cccs3)ccnc2c1 [GPQF-8Q8, 7-Chloro-4-[(2E)-2-(thiophen-2-ylmethylidene)hydrazinyl]quinoline], the “Activity against 49-day-old S. mansoni worms at 50 µM” value (S. mansoni adult worms; 50 µM, adult worms, initial in vitro trial, 72 h) was “Active”, the EC50 (S. mansoni adult worms; female adult worms, read-out: S. mansoni EC50 Female) was 28.5 µM and the EC50 (S. mansoni adult worms; male adult worms, read-out: S. mansoni EC50 Male) was 35.8 µM. For the same compound, the CC50 at 72 h [2] was over 200 µM, the “SI (selectivity index)” value (Vero cells) was over 5.6 and the “Reduction in worm burden” value (S. mansoni-infected mice; 42 days post-infection) was 50.8%. For the same compound, the “Reduction in eggs found in feces” value (S. mansoni-infected mice; Kato-Katz technique) was 52.8%, the “Reduction in immature eggs found in the intestines” value (S. mansoni-infected mice; oogram) was 45.8% and the “Survival percentage of C. elegans” value (Caenorhabditis elegans; 10 μM) was 100%. The “Survival percentage of C. elegans” value (Caenorhabditis elegans; 25 μM) was 100%, the “Survival percentage of C. elegans” value (Caenorhabditis elegans; 50 μM) was 100% and the “Survival percentage of C. elegans” value (Caenorhabditis elegans; 100 μM) was 100%. The “Survival percentage of C. elegans” value (Caenorhabditis elegans; 200 μM) was 100%.
